Test results as given in the supplement of paper PMC10307832.

Experiments:
Assay in all cases: relative viability (nuclei count vs DMSO), 5 days (fraction); higher = more cells survive
[1] = tested on: NCI-H1650
Outline: (§1)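 The day after seeding in 1536-well plates, lung cancer cell lines were treated by pin tool with a single drug, or with a fixed anchor-drug dose together with five library-drug doses (not always all listed) in √10 steps. After 5 days, a combined fix-and-stain solution (final 0.05% Triton X-100, 1% formaldehyde, 1 ug/ml Hoechst) was added. Nuclei counted on 4× images gave relative viability as treated counts over vehicle counts, reported as the median of duplicate plates.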

[2] = tested on: NCI-H2023
Outline: as §1

[3] = tested on: HCC-15
Outline: as §1

[4] = tested on: NCI-H1915
Outline: as §1

[5] = tested on: NCI-H2009
Outline: as §1

[6] = tested on: BEN
Outline: as §1

[7] = tested on: ChaGo-K-1
Outline: as §1

[8] = tested on: HCC-827
Outline: as §1

[9] = tested on: HCC-44
Outline: as §1

[10] = tested on: LCLC-97TM1
Outline: as §1

[11] = tested on: NCI-H596
Outline: as §1

[12] = tested on: NCI-H1395
Outline: as §1

[13] = tested on: NCI-H1944
Outline: as §1

[14] = tested on: NCI-H522
Outline: as §1

[15] = tested on: LU99A
Outline: as §1

[16] = tested on: HOP-62
Outline: as §1

[17] = tested on: COR-L 105
Outline: as §1

[18] = tested on: LC-2-ad
Outline: as §1

[19] = tested on: LOU-NH91
Outline: as §1

[20] = tested on: CAL-12T
Outline: as §1

[21] = tested on: HCC-366
Outline: as §1

[22] = tested on: NCI-H661
Outline: as §1

[23] = tested on: NCI-H650
Outline: as §1

[24] = tested on: HARA
Outline: as §1

Nc1cccc2c1CN(C1CCC(=O)NC1=O)C2=O (stereo not drawn) [Lenalidomide] + CC(=O)Nc1cccc(-n2c(=O)n(C3CC3)c(=O)c3c(Nc4ccc(I)cc4F)n(C)c(=O)c(C)c32)c1 [Trametinib] (partner 0.02 µM)
relative viability ([1]; first compound 0.253 µM): 0.421
relative viability ([1]; first compound 0.8 µM): 0.432
relative viability ([1]; first compound 2.53 µM): 0.551
relative viability ([1]; first compound 8 µM): 0.684
relative viability ([2]; first compound 0.253 µM): 0.554
relative viability ([2]; first compound 0.8 µM): 0.584
relative viability ([2]; first compound 2.53 µM): 0.444
relative viability ([2]; first compound 8 µM): 0.504
relative viability ([3]; first compound 0.253 µM): 0.412
relative viability ([3]; first compound 0.8 µM): 0.427
relative viability ([3]; first compound 2.53 µM): 0.377
relative viability ([3]; first compound 8 µM): 0.334
relative viability ([4]; first compound 0.253 µM): 0.306
relative viability ([4]; first compound 0.8 µM): 0.319
relative viability ([4]; first compound 2.53 µM): 0.323
relative viability ([4]; first compound 8 µM): 0.283
relative viability ([5]; first compound 0.253 µM): 0.297
relative viability ([5]; first compound 0.8 µM): 0.28
relative viability ([5]; first compound 2.53 µM): 0.283
relative viability ([5]; first compound 8 µM): 0.28
relative viability ([6]; first compound 0.253 µM): 1.1
relative viability ([6]; first compound 0.8 µM): 1.07
relative viability ([6]; first compound 2.53 µM): 1.18
relative viability ([6]; first compound 8 µM): 0.913
relative viability ([7]; first compound 0.253 µM): 0.925
relative viability ([7]; first compound 0.8 µM): 0.897
relative viability ([7]; first compound 2.53 µM): 1.02
relative viability ([7]; first compound 8 µM): 0.904
relative viability ([8]; first compound 0.253 µM): 0.462
relative viability ([8]; first compound 0.8 µM): 0.594
relative viability ([8]; first compound 2.53 µM): 0.518
relative viability ([8]; first compound 8 µM): 0.52
relative viability ([9]; first compound 0.253 µM): 1.08
relative viability ([9]; first compound 0.8 µM): 0.829
relative viability ([9]; first compound 2.53 µM): 1.11
relative viability ([9]; first compound 8 µM): 1.05
relative viability ([10]; first compound 0.253 µM): 0.183
relative viability ([10]; first compound 0.8 µM): 0.239
relative viability ([10]; first compound 2.53 µM): 0.212
relative viability ([10]; first compound 8 µM): 0.159
relative viability ([11]; first compound 0.253 µM): 0.73
relative viability ([11]; first compound 0.8 µM): 0.83
relative viability ([11]; first compound 2.53 µM): 0.938
relative viability ([11]; first compound 8 µM): 0.766
relative viability ([12]; first compound 0.253 µM): 0.988
relative viability ([12]; first compound 2.53 µM): 1.1
relative viability ([12]; first compound 8 µM): 0.929
relative viability ([13]; first compound 0.253 µM): 0.385
relative viability ([13]; first compound 2.53 µM): 0.427
relative viability ([13]; first compound 8 µM): 0.395
relative viability ([14]; first compound 0.253 µM): 0.813
relative viability ([14]; first compound 0.8 µM): 0.803
relative viability ([14]; first compound 2.53 µM): 0.725
relative viability ([14]; first compound 8 µM): 0.623
relative viability ([15]; first compound 0.253 µM): 0.509
relative viability ([15]; first compound 0.8 µM): 0.537
relative viability ([15]; first compound 2.53 µM): 0.644
relative viability ([15]; first compound 8 µM): 0.425
relative viability ([16]; first compound 0.253 µM): 0.34
relative viability ([16]; first compound 0.8 µM): 0.338
relative viability ([16]; first compound 2.53 µM): 0.4
relative viability ([16]; first compound 8 µM): 0.363
relative viability ([17]; first compound 0.253 µM): 0.493
relative viability ([17]; first compound 0.8 µM): 0.471
relative viability ([17]; first compound 2.53 µM): 0.462
relative viability ([17]; first compound 8 µM): 0.416
relative viability ([18]; first compound 0.253 µM): 0.868
relative viability ([18]; first compound 0.8 µM): 0.943
relative viability ([18]; first compound 2.53 µM): 0.972
relative viability ([18]; first compound 8 µM): 0.968
relative viability ([19]; first compound 0.253 µM): 0.786
relative viability ([19]; first compound 0.8 µM): 0.78
relative viability ([19]; first compound 2.53 µM): 0.771
relative viability ([19]; first compound 8 µM): 0.679
relative viability ([20]; first compound 0.253 µM): 0.371
relative viability ([20]; first compound 0.8 µM): 0.292
relative viability ([20]; first compound 2.53 µM): 0.431
relative viability ([20]; first compound 8 µM): 0.306
relative viability ([21]; first compound 0.253 µM): 0.33
relative viability ([21]; first compound 0.8 µM): 0.353
relative viability ([21]; first compound 2.53 µM): 0.386
relative viability ([21]; first compound 8 µM): 0.264
relative viability ([22]; first compound 0.253 µM): 0.529
relative viability ([22]; first compound 0.8 µM): 0.593
relative viability ([22]; first compound 2.53 µM): 0.591
relative viability ([22]; first compound 8 µM): 0.533
relative viability ([23]; first compound 0.253 µM): 0.983
relative viability ([23]; first compound 0.8 µM): 1
relative viability ([23]; first compound 2.53 µM): 0.963
relative viability ([23]; first compound 8 µM): 0.891
relative viability ([24]; first compound 0.253 µM): 0.715
relative viability ([24]; first compound 2.53 µM): 0.542
relative viability ([24]; first compound 8 µM): 1.04
